The source of these data is US9957271B2, “Substituted bicyclic aza-heterocycles and analogues as sirtuin modulators” (GlaxoSmithKline, LLC, priority 2012, dated 2018).

Test [1] deals with T1, SIRT1 (Homo sapiens, UniProt Q96EB6).
T1 sequence (Q96EB6 1-747): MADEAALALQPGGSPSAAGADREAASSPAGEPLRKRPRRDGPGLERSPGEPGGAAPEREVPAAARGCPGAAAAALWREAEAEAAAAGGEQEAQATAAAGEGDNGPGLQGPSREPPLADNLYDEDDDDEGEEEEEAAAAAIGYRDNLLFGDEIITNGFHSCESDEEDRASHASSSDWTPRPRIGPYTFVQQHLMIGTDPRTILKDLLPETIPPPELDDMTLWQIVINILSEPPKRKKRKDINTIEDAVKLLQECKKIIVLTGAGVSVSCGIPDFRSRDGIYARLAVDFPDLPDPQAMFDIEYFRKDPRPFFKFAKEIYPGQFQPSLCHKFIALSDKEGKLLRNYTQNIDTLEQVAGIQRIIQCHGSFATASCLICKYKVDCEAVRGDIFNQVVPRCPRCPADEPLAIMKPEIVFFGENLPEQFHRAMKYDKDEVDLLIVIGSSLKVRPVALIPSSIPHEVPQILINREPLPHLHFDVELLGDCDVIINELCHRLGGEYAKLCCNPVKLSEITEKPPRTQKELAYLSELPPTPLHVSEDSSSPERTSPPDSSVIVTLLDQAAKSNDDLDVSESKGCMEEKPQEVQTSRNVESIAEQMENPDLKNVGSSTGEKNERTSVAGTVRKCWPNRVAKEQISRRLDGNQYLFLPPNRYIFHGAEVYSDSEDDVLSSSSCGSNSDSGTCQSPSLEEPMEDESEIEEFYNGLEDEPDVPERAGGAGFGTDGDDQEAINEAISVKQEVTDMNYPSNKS
The experiment in a line: TAMRA based mass spectrometry assay of SIRT1 activity. The conditions noted are these: for Emax: read-out: TAMRA % Fold Act. It is filed as biochemical. The procedure, abridged:
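Recombinant N-terminal His-tagged human SIRT1 (10 nM, E. coli) incubated 25 min at 25 °C with 0.5 μM 5TMR-labelled p53-derived acetyl-peptide and 120 μM βNAD+ in Tris-acetate pH 8 buffer with DTT and 0.05% BSA, compound at varying concentrations. Stopped with formic acid; deacetylated peptide or OAADPR measured by mass spectrometry relative to DMSO controls.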

In test [2] the target is T1, SIRT1. Nature of the test: Trp mass spectrometry assay of SIRT1 activity. The class given is biochemical. Conditions: for Emax: read-out: Trp % Fold Act. The procedure, abridged: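 His-tagged SIRT1 expressed in E. coli BL21(DE3), 10 nM, incubated 25 min at 25° C. with 0.5 μM Ac-RHKK(Ac)W-NH2 peptide and 120 μM βNAD+ in 50 mM HEPES pH 7.5, […], 1 mM DTT, 0.05% BSA; formic acid stop. OAADPR or deacetylated peptide measured by mass spectrometry; EC1.5 and percent maximum activation versus DMSO control.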

Where [3] appears, read: TAMRA assay, concentration giving 150% activation of SIRT1.
Setting [4] is: TAMRA assay, percent maximum fold activation.
The mark [5] stands for this setting: Trp assay, concentration giving 150% activation of SIRT1.
[6] abbreviates: Trp assay, percent maximum fold activation.
The mark [7] stands for this setting: TAMRA peptide substrate, concentration giving 150% activation of SIRT1.
[8] abbreviates: TAMRA peptide substrate, percent maximum fold activation.
[9] abbreviates: Trp peptide substrate, concentration giving 150% activation of SIRT1.
Setting [10] is: Trp peptide substrate, percent maximum fold activation.
[11] abbreviates: concentration of test compound giving 150% activation of SIRT1, TAMRA peptide substrate.
[12] abbreviates: percent maximum fold activation of SIRT1, TAMRA peptide substrate.
Setting [13] is: concentration of test compound giving 150% activation of SIRT1, Trp peptide substrate.
[14] abbreviates: percent maximum fold activation of SIRT1, Trp peptide substrate.

Consider `O=C(Nc1cnn2ccc(-c3ccccc3OC(F)(F)F)nc12)c1cc(O)ncn1` [Compound 776], for which the “TAMRA EC1.5 (μM)” value at SIRT1 [1] (setting [3]) is listed as “B (EC1.5 1-25 μM)”. Also, the values for the Emax at SIRT1 [1] (setting [4]) and at SIRT1 [2] (setting [6]) were at least 350% and under 350%, respectively. Also, the “Trp EC1.5 (μM)” value on SIRT1 [2] (setting [5]) is “C (EC1.5>25 μM)”.

`Cc1ncccc1C(=O)Nc1cnc2ccc(-c3ccccc3C(F)(F)F)nn12` [Compound 392]: at SIRT1 [1] (setting [3]), the “TAMRA EC1.5 (μM)” value is “C (EC1.5>25 μM)”. Moreover, the Emax on SIRT1 [1] (setting [4]) and on SIRT1 [2] (setting [6]) was under 350% each time. In addition, the “Trp EC1.5 (μM)” value on SIRT1 [2] (setting [5]) is on record as “C (EC1.5>25 μM)”.

On to `Cc1cc(NC(=O)c2cnc3ccc(-c4cccc(OCC(O)CO)c4)nn23)cc(C)n1` (stereo not shown) [Compound 418], for which the “TAMRA EC1.5” value at SIRT1 [1] (setting [7]) is reported as “B (EC1.5 1-25 μM)”. Further, the Emax on SIRT1 [1] (setting [8]) and at SIRT1 [2] (setting [10]) was under 350% in each case. Further, the “Trp EC1.5” value at SIRT1 [2] (setting [9]) is on record as “C (EC1.5>25 μM)”.

Turning to `O=C(Nc1ccncn1)c1cnc2ccc(-c3ccccc3C(F)(F)F)nn12` [Compound 80], at SIRT1 [1] (setting [11]), the “TAMRA EC1.5 (μM)” value is “B (EC1.5 1-25 μM)”. Besides, the Emax on SIRT1 [1] (setting [12]) was at least 350%; at SIRT1 [2] (setting [14]), under 350%. Moreover, on SIRT1 [2] (setting [13]), the “Trp EC1.5 (μM)” value was “C (EC1.5>25 μM)”.

On to `O=C(Nc1cnc2ccc(-c3ccccc3OC(F)(F)F)nn12)c1cccc(N2CCOCC2)n1` [Compound 321], for which, on SIRT1 [1] (setting [3]), the “TAMRA EC1.5 (μM)” value was “A (EC1.5<1 μM)”. In addition, the Emax at SIRT1 [1] (setting [4]) and on SIRT1 [2] (setting [6]) was at least 350% throughout. The “Trp EC1.5 (μM)” value on SIRT1 [2] (setting [5]) is given as “A (EC1.5<1 μM)”.

With `O=C(Nc1cccnn1)c1cnn2ccc(-c3ccccc3OC(F)(F)F)nc12` [Compound 624], the “TAMRA EC1.5 (μM)” value on SIRT1 [1] (setting [3]) is “A (EC1.5<1 μM)”. Also, the Emax on SIRT1 [1] (setting [4]) and on SIRT1 [2] (setting [6]) was at least 350% in each case. For the same compound, on SIRT1 [2] (setting [5]), the “Trp EC1.5 (μM)” value is recorded as “A (EC1.5<1 μM)”.

`Cc1ccnnc1NC(=O)c1cnc2c(C)cc(-c3ccccc3C(F)(F)F)nn12` [Compound 681]: the “TAMRA EC1.5 (μM)” value at SIRT1 [1] (setting [3]) is recorded as “C (EC1.5>25 μM)”. For the same compound, the Emax at SIRT1 [1] (setting [4]) is under 350%; on SIRT1 [2] (setting [6]), at least 350%. In addition, the “Trp EC1.5 (μM)” value on SIRT1 [2] (setting [5]) is “B (EC1.5 1-25 μM)”.

In the case of `Cc1noc(C)c1-c1ccc2ncc(C(=O)Nc3cccc(N4CCOCC4)n3)n2n1` [Compound 53], at SIRT1 [1] (setting [11]), the “TAMRA EC1.5 (μM)” value is recorded as “B (EC1.5 1-25 μM)”. The Emax at SIRT1 [1] (setting [12]) and at SIRT1 [2] (setting [14]) was under 350% throughout. The “Trp EC1.5 (μM)” value at SIRT1 [2] (setting [13]) is “B (EC1.5 1-25 μM)”.

Regarding `O=C(Nc1ccnc(N2CCCC2)c1)c1cnc2ccc(-c3ccccc3C(F)(F)F)nn12` [Compound 25], at SIRT1 [1] (setting [11]), the “TAMRA EC1.5 (μM)” value is “A (EC1.5<1 μM)”. Further, the Emax at SIRT1 [1] (setting [12]) and at SIRT1 [2] (setting [14]) was at least 350% each time. Further, the “Trp EC1.5 (μM)” value at SIRT1 [2] (setting [13]) is on record as “A (EC1.5<1 μM)”.

Regarding `Cc1cccc(NC(=O)c2cnc3ccc(-c4ccccc4OCC(O)CO)nn23)n1` (stereo not shown) [Compound 369], at SIRT1 [1] (setting [3]), the “TAMRA EC1.5 (μM)” value is given as “A (EC1.5<1 μM)”. Besides, the Emax at SIRT1 [1] (setting [4]) and at SIRT1 [2] (setting [6]) was at least 350% each time. Moreover, the “Trp EC1.5 (μM)” value on SIRT1 [2] (setting [5]) was “B (EC1.5 1-25 μM)”.

For the compound `Cc1cccc(NC(=O)c2c(C)nn3ccc(-c4ccccc4C(F)(F)F)nc23)n1` [Compound 628, 2-methyl-N-(6-methylpyridin-2-yl)-5-(2-(trifluoromethyl)phenyl)pyrazolo[1,5-a]pyrimidine-3-carboxamide], the “TAMRA EC1.5 (μM)” value at SIRT1 [1] (setting [3]) was “A (EC1.5<1 μM)”. Moreover, the Emax at SIRT1 [1] (setting [4]) and at SIRT1 [2] (setting [6]) was at least 350% throughout. Also, at SIRT1 [2] (setting [5]), the “Trp EC1.5 (μM)” value is “A (EC1.5<1 μM)”.

`O=C(Nc1ccccn1)c1cnc2ccc(-c3cccc(F)c3Cl)nn12` [Compound 182]: on SIRT1 [1] (setting [11]), the “TAMRA EC1.5 (μM)” value was “B (EC1.5 1-25 μM)”. The Emax at SIRT1 [1] (setting [12]) and on SIRT1 [2] (setting [14]) was under 350% throughout. Further, the “Trp EC1.5 (μM)” value at SIRT1 [2] (setting [13]) is given as “B (EC1.5 1-25 μM)”.

In the case of `Cc1cc(NC(=O)c2cnc3ccc(-c4ccccc4OC(F)(F)F)nn23)cc(C)n1` [Compound 419], the “TAMRA EC1.5” value at SIRT1 [1] (setting [7]) was “A (EC1.5<1 μM)”. Besides, the Emax on SIRT1 [1] (setting [8]) and on SIRT1 [2] (setting [10]) was at least 350% throughout. The “Trp EC1.5” value at SIRT1 [2] (setting [9]) is listed as “A (EC1.5<1 μM)”.
